From the NIST ThermoML archive (doi:10.1016/j.jct.2012.08.033)
Numbers after ± are expanded uncertainties.

Tests used:
[1] = Liquid, vibrating tube
[2] = xn = mol fraction of the nth substance listed; conditions: Liquid, vibrating tube, x1 = 1

| mass density ([1]; 293.28 K, 100.7 kPa) [kg/m3] | mass density ([1]; 313.3 K, 78.5 kPa) [kg/m3] | mass density ([2]; 293.28 K, 100.7 kPa) [kg/m3] | mass density ([2]; 313.3 K, 78.5 kPa) [kg/m3] | SMILES |
| --- | --- | --- | --- | --- |
| 998.33 ± 2 | 992.09 ± 2 | – | – | O [water] |
| – | – | 998.33 ± 2 | 992.09 ± 2 | O [water] + C1CCOC1 |
